SMILES strings stand for the structures. Where a name gives a salt, the structure may show the parent alone. A value given as a limit tells only on which side of the number the result lay.

One experiment addresses T1, aromatase (Rattus norvegicus, UniProt P22443).
T1 construct: ovarian microsomes are obtained from rats treated with pregnant mares serum gonadotropin; from tissue; host or cells: ovarian microsomes of rats treated with pregnant mares serum gonadotropin
T1 sequence (P22443 1-508): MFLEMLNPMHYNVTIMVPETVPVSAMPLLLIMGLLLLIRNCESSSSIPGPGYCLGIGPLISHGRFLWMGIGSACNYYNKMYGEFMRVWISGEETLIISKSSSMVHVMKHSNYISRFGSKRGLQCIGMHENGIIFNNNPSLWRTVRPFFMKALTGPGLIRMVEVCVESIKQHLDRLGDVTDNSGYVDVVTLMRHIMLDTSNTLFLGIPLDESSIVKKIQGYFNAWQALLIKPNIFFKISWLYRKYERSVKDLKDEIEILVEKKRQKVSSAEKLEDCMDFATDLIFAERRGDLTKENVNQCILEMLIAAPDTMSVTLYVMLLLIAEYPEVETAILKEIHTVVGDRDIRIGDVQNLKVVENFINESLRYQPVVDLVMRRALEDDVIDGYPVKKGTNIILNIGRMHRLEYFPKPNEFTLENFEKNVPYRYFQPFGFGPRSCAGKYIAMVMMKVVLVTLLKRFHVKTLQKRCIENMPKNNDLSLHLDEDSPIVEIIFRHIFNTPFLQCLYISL
Put plainly: Aromatase inhibition in the rat ovarian microsome assay. Type of experiment: biochemical. Particulars: EC50: concentration required to achieve 50% inhibition of aromatase activity, substrate (androstenedione) concentration 0.1 μM.

A further experiment deals with estrogen synthesis. Put plainly: Estrogen synthesis inhibition in rats (uterine weight and ovarian steroid concentrations). The format is in vivo, female Wistar rats. The settings on record: for Mean Uterine Weight: testosterone propionate-treated rats.
The mark [1] stands for this setting: 30 ppm in feed (approximately 3 mg/kg/day).
Where [2] appears, read: 300 ppm in feed (approximately 30 mg/kg/day).
Setting [3] is: 30 ppm in feed (approximately 3 mg/kg/day), ovaries.
Where [4] appears, read: 300 ppm in feed (approximately 30 mg/kg/day), ovaries.

Experimental for aromatase: In this test system, ovarian microsomes are obtained from rats treated with pregnant mares serum gonadotropin. Test compounds are added to reaction vials containing 0.1 μM 4-androstene-3,17-dione, 100,000 dpm 1,2[^3 H]-androstenedione, the microsomes and a NADPH generating system. The concentrations of the inhibitors tested ranged between 0.005 and 10 μM.
Experimental for estrogen synthesis: Test compounds were administered for seven days either daily by gavage in corn oil or as a component of the diet. Control animals received either corn oil or diet without the test compound. Beginning on the fourth day of the test, all animals treated with the test compound and one half of the control animals were given a subcutaneous injection of 1.0 mg of testosterone propionate in corn oil. The remaining control animals received only an equivalent volume of corn oil.
After two hours, the animals were killed by decapitation. Uteri were isolated, trimmed of extraneous connective tissue, and weighed. […] In the control animals treated with testosterone propionate, estrogens produced by aromatization stimulated the uterus resulting in an increase in weight.
The ovarian steroids were extracted with 1.5 ml of 9:1 (v/v) toluene/ethanol to which had been added 25 to 100 mcg each of unlabelled estradiol, estriol, and estrone, and approximately 1000 dpm of [^14 C]-estradiol. The samples were vortexed, centrifuged at 500×g for 10 minutes, and the organic phase was transferred to a conical vial. Two additional extractions were performed on the residue in the same way. The pooled organic extracts were evaporated for subsequent thin-layer chromatography.
Ovarian proteins were precipitated by the addition of 5.0 ml of ethanol to the remaining aqueous phase. After an overnight incubation at 4° C., the samples were centrifuged at 1500×g for 10 minutes. The supernatant was discarded, and the pellet was dissolved in 0.3N potassium hydroxide.
The organic residue from each above extraction was redissolved in 9:1 (v/v) dichloromethane/methanol. The solution of each sample was applied to separate silica gel thin layer chromatography plates which contained a fluorescent indicator. The plates were developed in the first dimension with 160:38:1.5:0.5 (v/v/v/v) dichloromethane/ethyl acetate/methanol/acetic acid to within 3 cm of the top of the plate. After air-drying, the plate was developed in the second dimension with 180:19:1 (v/v/v) dichloromethane/methanol/ammonium hydroxide. The plate was air-dried and viewed under 254 nm UV light.
The visible spots were marked and the plates were sprayed with primulin (0.001% in 4:1 v/v acetone/water) according to the method of Wright, J. Chromatography, 59, 220 (1971) which allowed for the identification of additional steroids under 365 nm UV light. The spots were scraped from the plate using a glass wool plugged Pasteur pipet attached to a vacuum line. The steroids were eluted directly into scintillation vials by the addition of 0.2 ml of dichloromethane followed by two washes each of 2.0 ml of methanol. The organic solvent was evaporated and 10.0 ml of scintillation fluid (Beckman Ready Solv-NA) was added to the vials. Samples were analyzed by liquid scintillation spectrometry. Corrections were made based on the recoveries of the [^14 C]-steroid. Steroid concentrations are expressed as femtomoles per milligram protein.

A word on the EC50: it is the concentration at which the effect is half-maximal. The compound `c1ccc2c(Cn3ccnc3)cccc2c1` [1-(1-naphthalenylmethyl)-1H--imidazole hydrochloride] came in with an EC50 at aromatase of 330 nM.

`Clc1ccc(C(c2ccccc2)n2cncn2)cc1` (centres unmarked) [1-[(4-chlorophenyl)phenylmethyl]-1H--1,2,4-triazole] displayed a 50% effective concentration (EC50) on aromatase of 150 nM.

Take `COc1ccc(Cn2ccnc2)cc1` [1-[(4-methoxyphenyl)methyl]-1H--imidazole hydrochloride]: the 50% effective concentration (EC50) at aromatase was determined as 2500 nM.

Regarding `c1ccc(C(c2ccccc2)(c2cncnc2)n2cncn2)cc1` [5-(diphenyl-1H--1,2,4-triazol-1-ylmethyl)pyrimidine], the EC50 on aromatase turned out to be 825 nM.

On aromatase, `Clc1ccc(C(c2ccccc2)(c2ccccc2)n2cncn2)cc1` [1-[(4-chlorophenyl)diphenylmethyl]-1H--1,2,4-triazole] had a concentration for a half-maximal effect (EC50) of 95 nM.

Take `Clc1ccc(Cl)c(Cn2ccnc2)c1` [1-[(2,5-dichlorophenyl)methyl]-1H--imidazole hydrochloride]: at aromatase, the EC50 worked out at 160 nM.

Regarding `c1ccc(C2(n3ccnc3)CCCCC2)cc1` [1-(1-phenylcyclohexyl)-1H--imidazole], the EC50 on aromatase was 93 nM.

Regarding `Cc1nccn1C(c1ccccc1)(c1ccc(F)cc1)c1ccc(F)cc1` [1-[bis(4-fluorophenyl)phenylmethyl]-2-methyl-1H--imidazole], the EC50 at aromatase is 80 nM.

On aromatase, `Clc1cccc(Cl)c1Cn1ccnc1` [1-[(2,6-dichlorophenyl)methyl]-1H--imidazole hydrochloride] registered an EC50 above 5000 nM.

`CSc1ccc(C(c2ccccc2)(c2cccnc2)n2cncn2)cc1` (centres unmarked) [3-([4-(methylthio)phenyl]phenyl-1H--1,2,4-triazol-1-ylmethyl)pyridine] gave a concentration giving a half-maximal response (EC50) on aromatase of 195 nM.

On to `Cc1ccc(Cn2ccnc2)cc1` [1-[(4-methylphenyl)methyl]-1H--imidazole hydrochloride], for which, on aromatase, the response was half-maximal at 840 nM (EC50).

Regarding `Cc1nccn1C(c1ccccc1)(c1ccc(Cl)cc1)c1ccc(Cl)cc1` [1-[bis(4-chlorophenyl)phenylmethyl]-2-methyl-1H--imidazole], the EC50 at aromatase is 94 nM.

On aromatase, `FC(F)(F)c1cccc(Cn2ccnc2)c1` [1-[(3-trifluoromethylphenyl)methyl]-1H--imidazole hydrochloride] yielded an EC50 of 390 nM.

`CCOc1ccccc1C(C)n1ccnc1` (centres unmarked) [1-[1-(2-ethoxyphenyl)ethyl]-1H--imidazole nitrate] displayed a concentration giving a half-maximal response (EC50) on aromatase below 50 nM.

Consider `c1ccc(C(c2ccccc2)(c2ccccc2)n2cncn2)cc1` [1-trityl-1H--1,2,4-triazole], for which the half-maximal effective concentration (EC50) at aromatase is 310 nM.

`Cc1cccc(Cn2ccnc2)c1` [1-[(3-methylphenyl)methyl]-1H--imidazole ethanedioate] yielded an EC50 at aromatase of 920 nM.

Regarding `Clc1ccc(C(c2ccccc2)(c2ccc(Cl)cc2)n2ccnc2)cc1` [1-[bis(4-chlorophenyl)phenylmethyl]-1H--imidazole], the EC50 at aromatase stood at 110 nM.

`Cc1nccn1C(c1ccccc1)(c1ccccc1)c1ccncc1` [4-[(2-methyl-1-imidazol-1-yl)diphenylmethyl]pyridine] gave an EC50 on aromatase of 120 nM.

At aromatase, `Clc1cc(Cl)cc(Cn2ccnc2)c1` [1-[(3,5-dichlorophenyl)methyl]-1H--imidazole hydrochloride] showed a half-maximal effective concentration (EC50) of 110 nM.

For the compound `FC(F)(F)c1ccc(Cn2ccnc2)cc1` [1-[(4-trifluoromethylphenyl)methyl]-1H--imidazole ethanedioate], the concentration giving a half-maximal response (EC50) on aromatase is 190 nM.

The compound `Clc1ccc(C(c2ccccc2)(c2ccc(Cl)cc2)n2cncn2)cc1` [1-[bis(4-chlorophenyl)phenylmethyl]-1H--1,2,4-triazole] had a concentration for a half-maximal effect (EC50) on aromatase of 110 nM.

On aromatase, `C=C(c1ccccc1OCc1cccc(Cl)c1)n1ccnc1` [1-[1-(2-[(3-chlorophenyl)methoxy]phenyl)ethenyl]-1H--imidazole hydrochloride] showed an EC50 of 165 nM.

With `CCOc1ccccc1C(c1ccccc1)n1ccnc1` (centres unmarked) [1-[(2-ethoxyphenyl)phenylmethyl]-1H--imidazole nitrate], the EC50 on aromatase came out at 100 nM.

On aromatase, `Cc1nccn1C(c1ccccc1)(c1ccccc1)c1ccc(Cl)cc1` [1-[(4-chlorophenyl)diphenylmethyl]-2-methyl-1H--imidazole] returned an EC50 of 80 nM.

`Clc1cccc(Cl)c1COc1ccccc1Cn1ccnc1` [1-[(2-[2,6-dichlorobenzyloxy]phenyl)methyl]-1H--imidazole nitrate] displayed an EC50 on aromatase of 125 nM.

`c1ccc(C2(n3ccnc3)CCCCCC2)cc1` [1-(1-phenylcycloheptyl)-1H--imidazole]: at aromatase, a half-maximal response (EC50) required 110 nM.

Turning to `Fc1ccc(C(c2ccc(Br)cc2)n2cncn2)cc1` (centres unmarked) [1-[(4-bromophenyl)(4-fluorophenyl)methyl]-1H--1,2,4-triazole], the EC50 at aromatase was below 50 nM.

On aromatase, `Cc1nccn1C(c1ccccc1)(c1ccccc1)c1ccccc1` [2-methyl-1-tritylimidazole] registered an EC50 of 1300 nM.

With `CC(C)(C)C(c1ccc(Cl)cc1)(c1cccnc1)n1ccnc1` (stereo not drawn) [3-(α-tert-butyl-4-chloro-α-imidazol-1-ylbenzyl)pyridine], a half-maximal effect on aromatase (EC50) was put at 100 nM.

Regarding `CCCC(c1ccccc1OCc1ccc(Cl)cc1Cl)n1ccnc1` (centres unmarked) [1-[1-(2-[2,4-dichlorobenzyloxy]phenyl)butyl]-1H--imidazole nitrate], the EC50 at aromatase was 125 nM.

As for `Clc1ccc(C(c2ccccc2)(c2ccccc2)n2ccnc2)cc1` [1-[(4-chlorophenyl)diphenylmethyl)-1H--imidazole], on aromatase, a half-maximal response (EC50) required 69 nM.

At aromatase, `FC(F)(F)c1ccc(C(c2ccc(Cl)cc2)(c2cncnc2)n2ccnc2)cc1` (centres unmarked) [5-[(4-chlorophenyl)-1H--imidazol-1-yl(4-trifluoromethylphenyl)methyl]pyrimidine] displayed an EC50 of 30 nM.

As to `COc1cccc(Cn2ccnc2)c1` [1-[(3-methoxyphenyl)methyl]-1H--imidazole ethanedioate], the EC50 at aromatase is 1250 nM.

`O=[N+]([O-])c1ccccc1Cn1ccnc1` [1-[(2-nitrophenyl)methyl]-1H--imidazole hydrochloride] showed an EC50 at aromatase of 3100 nM.

In the case of `CSc1ccc(C(c2ccccc2)(c2cccnc2)n2ccnc2)cc1` (centres unmarked) [3-(1H--imidazol-1-yl-[4-(methylthio)phenyl]phenylmethyl)pyridine], the concentration for a half-maximal effect (EC50) at aromatase is below 50 nM.

Consider `CCOc1ccccc1Cn1ccnc1` [1-[(2-ethoxyphenyl)methyl]-1H--imidazole hydrochloride], for which a half-maximal response on aromatase (EC50) required 1560 nM.

Consider `Clc1ccc(C(c2ccc(Cl)cc2)(c2cncnc2)n2ccnc2)cc1` [5-[bis(4-chlorophenyl)-1H--imidazol-1-ylmethyl]pyrimidine], for which the “Mean Uterine Weight” value in the experiment on estrogen synthesis (setting [1]) is on record as 107.5 mg; in the experiment on estrogen synthesis (setting [2]), 87.6 mg.

As for `Clc1ccc(C(c2ccc(Cl)cc2)n2cnnc2)cc1` [4-[bis(4-chlorophenyl)methyl]-4H--1,2,4-triazole], the “Mean Steroid Concentration, estradiol” value with estrogen synthesis (setting [3]) is 0.46 femtomoles per milligram of protein; in the experiment with estrogen synthesis (setting [4]) it was 0.48 femtomoles per milligram of protein. For the same compound, the “Mean Steroid Concentration, estriol” value with estrogen synthesis (setting [3]) is 0.60 femtomoles per milligram of protein; in the experiment on estrogen synthesis (setting [4]), 0.64 femtomoles per milligram of protein. Besides, the “Mean Uterine Weight” value amounted to 113.3 mg with estrogen synthesis (setting [1]) and 97.3 mg with estrogen synthesis (setting [2]). Also, the “Mean Steroid Concentration, estrone” value in the experiment with estrogen synthesis (setting [4]) is 0.10 femtomoles per milligram of protein.

As for `COc1ccccc1C(c1ccccc1)n1ccnc1` (centres unmarked) [1-[(2-methoxyphenyl)phenylmethyl]-1H--imidazole nitrate], the entries for the “Mean Uterine Weight” value with estrogen synthesis (setting [1]) and with estrogen synthesis (setting [2]) were 176.0 mg and 212.6 mg, respectively.

For the origin of these results see patent publication US4755526A, “Method of inhibiting aromatase” (Eli Lilly and Company, priority 1984, dated 1988).
